How the values were obtained:
[1] = biological target: T1, RORγ ligand binding domain (Homo sapiens, UniProt P51449); experiment: RORγ radioligand competition binding assay (SPA); settings: competition with tritiated 2-(4-(ethylsulfonyl)phenyl)-N-(4-(2-(methoxymethyl)phenyl)thiophen-2-yl)acetamide (25 nM), hRORγ LBD
Description: RORγ Radioligand Competition Binding Assay The aim of this assay is to identify compounds which bind to the RORγ ligand binding domain, by competing with tritiated 2-(4-(ethylsulfonyl)phenyl)-N-(4-(2-(methoxymethyl)phenyl)thiophen-2-yl)acetamide. Human RORγ (Ligand Binding Domain (RORγ LBD) was expressed in E. coli (BL21DE3 Star) as a fusion protein: N-6×HN-Avi-GST-TCS-hRORγ LBD (S258-K518) subcloned into pET24a(+). The LBD (258-518) is underlined in the protein sequence: The scintillation proximity assay (SPA) was run in white polystyrene flat-bottom 384-well plates (Greiner, cat. No. 781075). Assays were carried out in 40 μl reaction volumes. Various concentrations of test ligands in 0.4 microlitres of DMSO were added to assay plates using an acoustic liquid dispenser. 4 nM purified N-(HN)6-GST-TCS-hRORγ (258-518) was mixed with 40 micrograms Yttrium oxide (YOx) glutathione SPA imaging beads in assay buffer (20 mM Tris, 150 mM NaCl, 10% Glycerol, 0.25% CHAPS, 1 mM TCEP) prior to adding 30 microlitres to test ligands. Assay plates were incubated for one hour at room temperature before adding 10 microlitres tritiated 2-(4-(ethylsulfonyl)phenyl)-N-(4-(2-(methoxymethyl)phenyl)thiophen-2-yl)acetamide to test plates in assay buffer (final concentration, 25 nM). Test plates were incubated for 16 hours and read using a LEADseeker Multimodality imaging instrument. The raw data was analysed and IC50 and Ki values for the compounds were calculated using Genedata Screener software. Raw data was transformed to % effect using equation 1: Compound % effect=100*[(X−min)/(max−min)], where X represents the normalized value for the compound based on the Min (vehicle) and Max (reference compound) inhibition controls. The concentration of test ligand that inhibited radioligand binding by 50% (i.e., the IC50) was calculated by plotting the % effect versus test ligand concentration and fitting the data using the Genedata Screener Smart fit algorithm. Ki is calculated from the IC50 value using the equation Ki=IC50/1+[L]/Kd) where [L]=25 nmol/L and Kd=17 nmol/L

[2] = system: human TH17 cells; experiment: Inhibition of IL-17 release from human TH17 cells; type: cell-based; settings: 96 h; isolated human TH17 cells cultured 4 days, IL-17A in supernatant by HTRF; read-out: pIC50 IL-17 release (converted)
Description: Inhibition of IL-17 Release from Human TH17 Cells
This test is designed to screen compounds for their inhibitory effect on the release of IL-17 from isolated and cultured human TH17 cells.
Peripheral blood mononuclear cells (PBMC) were isolated from heparin treated human whole blood from healthy donors by density gradient centrifugation. TH17 cells (CD4+CXCR3−CCR6+) were enriched using a human TH17 Cell Enrichment Kit (Stemcell Technologies) according to the manufacturer's protocol. The isolated TH17 cells were activated with aCD3aCD28 beads (MACS Miltenyi) and cultured in X-Vivo15 medium (Lonza) supplemented with L-glutamine, β-mercaptoethanol and a cytokine cocktail consisting of; IL-2, IL-23, IL-1β, IL-6, TGF-β. Cells were seeded at 8000 cells/well in a 384-plate (Corning, #3707) in the presence of compounds or DMSO and cultured for 4 days (37° C., 5% CO2). On day 4 supernatants were collected and IL-17A was measured using a Human IL-17 HTRF Assay kit (Cisbio Bioassays) according to the manufacturer's protocol. The IC50 values for the tested compounds was calculated using Genedata Screener® software (Genedata) using the following calculation method; Compound % effect=100*[(X−min)/(max−min)], where X represents the normalized value for the compound based on the Min (DMSO) and Max (compound 3-(1,3-benzodioxol-5-yl)-1-(3,5-dimethylpiperidin-1-yl)-3-(2-hydroxy-4,6-dimethoxyphenyl)propan-1-one at 10 μM, described in J. R. Hu et al. ACS Med. Chem. Lett. 2013, 4, 79-84) inhibition controls. Results

[3] = biological target: T1, RORγ ligand binding domain; experiment: RORγ co-factor recruitment assay (FRET); type: biochemical; parameters: made in house; host or cells: E. coli BL21DE3 Star; settings: inhibition of recruitment of SRC-1 peptide (NCOA1_677-700) to hRORγ LBD, HTRF read-out
Description: RORγ Co-Factor Recruitment Assay A high throughput coactivator binding assay for the identification of inverse agonists of the recruitment of peptide SRC-1 (NCOA1_677-_700) to the RORγ ligand binding domain was established. The ligand binding domain (LBD) of human RORγ was expressed in E. coli (BL21DE3 Star) as a fusion protein: N-6×HN-MBP-Avi-TCS-hRORγLBD(P260-K518) subcloned into pET24a(+). The LBD (P260-K518) is underlined in the protein sequence: The assay was run in black 384 well plates (Greiner cat no: 784900). Various concentrations of test ligands in 0.1 microlitres DMSO were dispensed to assay plates using an Echo acoustic dispenser. Two pre-mixes were prepared and incubated for 1 h at room temp in the dark. Pre-mix 1 comprised 100 nM Protein (Biotinylated HN-Avi-MBP-TCS-hRORγ (258-518)) and 60 nM Streptavidin APC in assay buffer, 50 mM MOPS pH7.4, 50 mM KF, 0.003% (w/v) CHAPS, 10 mM DTT and 0.01% (w/v) BSA and pre-mix 2 comprised 160 nM biotinylated SRC-1 peptide (NCOA1-677-700) and 20 nM Europium-W8044 labelled Streptavidin in assay buffer. Five microlitres of pre-mix 2 was dispensed to assay plates containing 0.1 microlitres of test compound and was incubated for 15 min prior to adding five microlitres of pre-mix 1. Plates were incubated at rt for 1 hour in the dark, prior to reading in a Pherastar multi-mode plate reader using HTRF filter set (ex 320, em 612 and 665). The FRET signal at 665 nm was divided by the signal at 612 nm and multiplied by 10,000 to generate a signal ratio value for each well. The raw data was transformed to % effect using the equation: Compound % effect=100*[(X−min)/(max−min)], where X represents the normalized value for the compound based on the Min (vehicle) and Max (reference compound) inhibition control. The concentration of test ligand that inhibited the activity by 50% (i.e., the IC50) was calculated by plotting the % effect versus test ligand concentration and fitting the data using the Genedata Screener Smart fit algorithm.

## CC(=O)N1Cc2cc(S(C)(=O)=O)ccc2C1C(=O)Nc1ccc(C(NCCCS(C)(=O)=O)(C(F)(F)F)C(F)(F)F)cc1 (stereo not drawn) [Example 22, 2-Acetyl-N-[4-(1,1,1,3,3,3-hexafluoro-2-{[3-(methylsulfonyl)propyl]amino}propan-2-yl)phenyl]-5-(methylsulfonyl)-2,3-dihydro-1H-isoindole-1-carboxamide]
[1]
  IC50: 1000 nM
[2]
  IC50: 794 nM
[3]
  IC50: 1000 nM

## CC(=O)N1Cc2cc(S(C)(=O)=O)ccc2C1C(=O)Nc1ccc(C(N2CCOCC2)(C(F)(F)F)C(F)(F)F)cc1 (stereo not drawn) [Example 23, 2-Acetyl-N-{4-[1,1,1,3,3,3-hexafluoro-2-(morpholin-4-yl)propan-2-yl]phenyl}-5-(methylsulfonyl)-2,3-dihydro-1H-isoindole-1-carboxamide]
[1]
  IC50: 20 nM
[2]
  IC50: 15.8 nM
[3]
  IC50: 39.8 nM

## CC(=O)N1Cc2cc(S(C)(=O)=O)ccc2C1C(=O)Nc1ccc(C(c2nnn(C)n2)(C(F)(F)F)C(F)(F)F)cc1 (stereo not drawn) [Example 30, 2-Acetyl-N-{4-[1,1,1,3,3,3-hexafluoro-2-(2-methyl-2H-tetrazol-5-yl)propan-2-yl]phenyl}-5-(methylsulfonyl)-2,3-dihydro-1H-isoindole-1-carboxamide]
[1]
  IC50: 39.8 nM
[2]
  IC50: 25.1 nM
[3]
  IC50: 126 nM

## COC(=O)CC(c1ccc(NC(=O)C2NCc3cc(S(C)(=O)=O)ccc32)cc1)(C(F)(F)F)C(F)(F)F (stereo not drawn) [Example 31, Methyl 4,4,4-trifluoro-3-[4-[(5-methylsulfonylisoindoline-1-carbonyl)amino]phenyl]-3-(trifluoromethyl)butanoate]
[1]
  IC50: 794 nM
[2]
  IC50: 200 nM
[3]
  IC50: 200 nM

## COC(=O)CC(c1ccc(NC(=O)C2c3ccc(S(C)(=O)=O)cc3CN2C(C)=O)cc1)(C(F)(F)F)C(F)(F)F (stereo not drawn) [Example 32, Methyl 3-[4-({[2-acetyl-5-(methylsulfonyl)-2,3-dihydro-1H-isoindol-1-yl]carbonyl}amino)phenyl]-4,4,4-trifluoro-3-(trifluoromethyl)butanoate]
[1]
  IC50: 25.1 nM
[2]
  IC50: 15.8 nM
[3]
  IC50: 50.1 nM

## CC(=O)N1Cc2cc(S(C)(=O)=O)ccc2C1C(=O)Nc1ccc(C(CCO)(C(F)(F)F)C(F)(F)F)cc1 (stereo not drawn) [Example 33, 2-Acetyl-5-(methylsulfonyl)-N-{4-[1,1,1-trifluoro-4-hydroxy-2-(trifluoromethyl)butan-2-yl]phenyl}-2,3-dihydro-1H-isoindole-1-carboxamide]
[1]
  IC50: 251 nM
[2]
  IC50: 200 nM
[3]
  IC50: 158 nM

## CC(=O)N1Cc2cc(S(C)(=O)=O)ccc2C1C(=O)Nc1ccc(C(Cc2nc(C)no2)(C(F)(F)F)C(F)(F)F)cc1 (stereo not drawn) [Example 34, 2-Acetyl-N-(4-{1,1,1,3,3,3-hexafluoro-2-[(3-methyl-1,2,4-oxadiazol-5-yl)methyl]propan-2-yl}phenyl)-5-(methylsulfonyl)-2,3-dihydro-1H-isoindole-1-carboxamide]
[1]
  IC50: 20 nM
[2]
  IC50: 20 nM
[3]
  IC50: 126 nM

## CC(=O)N1Cc2cc(S(C)(=O)=O)ccc2C1C(=O)Nc1ccc(C(CCF)(C(F)(F)F)C(F)(F)F)cc1 (stereo not drawn) [Example 35, 2-Acetyl-5-(methylsulfonyl)-N-{4-[1,1,1,4-tetrafluoro-2-(trifluoromethyl)butan-2-yl]phenyl}-2,3-dihydro-1H-isoindole-1-carboxamide]
[1]
  IC50: 10 nM
[2]
  IC50: 6.31 nM
[3]
  IC50: 39.8 nM

## CC(=O)N1Cc2cc(S(C)(=O)=O)ccc2C1C(=O)Nc1ccc(C(CC#N)(C(F)(F)F)C(F)(F)F)cc1 (stereo not drawn) [Example 36, 2-Acetyl-N-{4-[2-(cyanomethyl)-1,1,1,3,3,3-hexafluoropropan-2-yl]phenyl}-5-(methylsulfonyl)-2,3-dihydro-1H-isoindole-1-carboxamide]
[1]
  IC50: 158 nM
[2]
  IC50: 63.1 nM
[3]
  IC50: 100 nM

## CCOC(=O)CC(c1ccc(NC(=O)C2c3ccc(S(C)(=O)=O)cc3CN2C(C)=O)cc1)(C(F)(F)F)C(F)(F)F (stereo not drawn) [Example 37, Ethyl 3-[4-({[2-acetyl-5-(methylsulfonyl)-2,3-dihydro-1H-isoindol-1-yl]carbonyl}amino)phenyl]-4,4,4-trifluoro-3-(trifluoromethyl)butanoate]
[1]
  IC50: 15.8 nM
[2]
  IC50: 25.1 nM
[3]
  IC50: 100 nM

## CC(=O)N1Cc2cc(S(C)(=O)=O)ccc2C1C(=O)Nc1ccc(C(CC(=O)NC2CC2)(C(F)(F)F)C(F)(F)F)cc1 (stereo not drawn) [Example 38, 2-Acetyl-N-{4-[4-(cyclopropylamino)-1,1,1-trifluoro-4-oxo-2-(trifluoromethyl)butan-2-yl]phenyl}-5-(methylsulfonyl)-2,3-dihydro-1H-isoindole-1-carboxamide]
[1]
  IC50: 794 nM
[2]
  IC50: 1000 nM
[3]
  IC50: 631 nM

## CC(=O)N1Cc2cc(S(C)(=O)=O)ccc2C1C(=O)Nc1ccc(C(CC(=O)NCCF)(C(F)(F)F)C(F)(F)F)cc1 (stereo not drawn) [Example 41, 2-Acetyl-5-(methylsulfonyl)-N-(4-{1,1,1-trifluoro-4-[(2-fluoroethyl)amino]-4-oxo-2-(trifluoromethyl)butan-2-yl}phenyl)-2,3-dihydro-1H-isoindole-1-carboxamide]
[1]
  IC50: 794 nM
[2]
  IC50: > 3160 nM
[3]
  IC50: 316 nM

## CC(=O)N1Cc2cc(S(C)(=O)=O)ccc2C1C(=O)Nc1ccc(C(CC(=O)N(C)C)(C(F)(F)F)C(F)(F)F)cc1 (stereo not drawn) [Example 42, 2-Acetyl-N-{4-[4-(dimethylamino)-1,1,1-trifluoro-4-oxo-2-(trifluoromethyl)butan-2-yl]phenyl}-5-(methylsulfonyl)-2,3-dihydro-1H-isoindole-1-carboxamide]
[1]
  IC50: 794 nM
[2]
  IC50: 794 nM
[3]
  IC50: 316 nM
